# Measurements as given in patent US20220218614A1, “IONIZABLE CATIONIC LIPIDS AND LIPID NANOPARTICLES, AND METHODS OF SYNTHESIS AND USE THEREOF” (Tidal Therapeutics, Inc., priority 2020, published 2022).
# Where “and” joins values, the source holds several entries; their conditions need not be identical. Equal entries are not always repeated.
# Assay: Apparent pKa of LNPs by TNS fluorescent probe
# Type: physicochemical
# Details: LNP made with the named ionizable lipid; pH at 50% of maximum TNS fluorescence
# Source text: This example describes the fluorescent dye based method used for measurement of the apparent pKa of the lipid nanoparticles. Apparent pKa determines the nanoparticle surface charge under physiological pH conditions, typically a pKa value in the endosomal pH range (6-7.4) results in LNPs that are neutral or slightly charged at plasma or the extracellular space (pH 7.4) and become strongly positive under acidic endosomal environments. This positive surface charge drives fusion of the LNP surface with negatively charged endosomal membranes resulting in destabilization and rupture of the endosomal compartment and LNP escape into the cytosolic compartment, a critical step in cytosolic delivery of mRNA and protein expression via engagement of the cells ribosomal machinery.
# The apparent pKa of LNPs made using ionizable Lipids 2, 5 (synthesized as described in example 1), 6 and 7 (synthesized using method analogous to Lipid 2, 5, respectively, except using diethyl amine instead of dimethyl amine to incorporate the tertiary amine head group) were determined by 6-(p-Toluidino)-2-naphthalenesulfonic acid (TNS) fluorescence measurement in aqueous buffers covering a range of pH values (pH 4-pH 10). TNS is non-fluorescent when free in solution, but which fluoresces strongly when associated with a positively charged lipid nanoparticle. At a pH values below the pKa of the nanoparticle, positive LNP surface charge results in dye recruitment at the particle interface resulting in TNS fluorescence. At pH values above the LNP pKa no fluorescence is observed. The apparent pKa of the LNP is reported as the pH at which the fluorescence is at 50% of its maximum, as determined using a four-point logistic curve fit.
structure (smiles),measurement,value
CCCCC/C=C\C/C=C\CCCCCCCC(=O)OC[C@H](CCN(C)C)OC(=O)CCCCCCC/C=C\C/C=C\CCCCC [Lipid 5],apparent pKa of LNP (TNS),6.9 and ~7
